A short description of series [1]: pH stability measurement (UPLC, 0.1 N HCl). Format: physicochemical. The conditions noted are these: 0.1 N HCl, pH 1, 24 hours. The protocol: Compounds were provided in 96-well plates and tested in triplicate. Four microliters of a 10 mM stock solution of compound in DMSO were distributed into each of three wells. The plate was stored at or below −20° C. until the day of the analysis. Methanol (HPLC grade) and 0.1 N HCl (EMD catalog HX0603A-6) were used for dilutions. Acetonitrile (HPLC grade), water (Milli-Q filtered), trifluoroacetic acid (spectral grade) and 0.2M phosphate buffer (Wako, catalog no. 163-14471) were used to prepare the mobile phase for the two analyses.
Stability data was obtained using a Waters Acquity UPLC equipped with a UV detector (Waters TUV) and single quadrupole MS detector (Waters SQD). The 96-well plate containing the compound(s) of interest was(were) removed from the freezer and allowed to warm to room temperature for one hour. The UPLC was primed, equilibrated and the system performance was verified by injecting a standard. After 1 hour, each of the three wells was diluted with 266 μL 0.1 N HCl to give pH=1. The plate was covered and placed on a shaker (Eppindorf Thermomixer R) for 45 minutes at 600 rpm. The plate was removed from the shaker, and the contents of each well were filtered through a filtration plate (Millipore catalog no. MSSLBPC50) by vacuum and injected into the UPLC. After approximately 24 hours, the contents of the wells were re-injected into the UPLC.
Stability in the various buffers was measured by comparing the peak area- % of the analyte in methanol versus the peak area- % of the analyte at the same retention time in 0.1 N HCl buffer in the 24 hr time point injection.

The subject of series [2] is WiDr cells (colon cancer cells, wildtype SF3B1). Put plainly: Cell viability assay (CellTiter-Glo, 72 hr), WiDr. Format: cell-based. The conditions noted are these: Homo sapiens. On the procedure: (§1) Cells (WiDr and Panc05.04 obtained from ATCC) were seeded in 96-well plates, with 2000 cells/100 μL/well, and incubated overnight. Spent media was removed, and fresh media containing 9 different concentrations of compound (100 μL/well) were added, with DMSO concentration from compound stock solution adjusted to be 0.1%. Each compound treatment was done in duplicate or triplicate at each concentration.
(§2) Another plate with cells seeded was dedicated as a time zero (Tz) plate, to which was added 0.1% DMSO in media (100 μL/well) followed by CellTiter-Glo® reagent (Promega Corporation, Madison, Wis.) (50 μL/well) for ATP measurement as a surrogate of cell viability. Average value from measurement of multiple wells of this plate is used as Tz.
(§3) Compound-treated plates were incubated for 72 hr at 37° C. Then, CellTiter-Glo® reagent (50 μL/well) was added and ATP was measured. Average value from measurement of the duplicate or triplicate compound-treated wells is used as Ti, and seeded plates with medium having 0.1% DMSO without compound is used as control growth (C).
(§4) Percentage growth inhibition/Percentage viability was calculated as: [(Ti−Tz)/(C−Tz)]×100 for concentrations for which Ti>/=Tz [(Ti−Tz)/Tz]×100 for concentrations for which Ti<Tz. *time zero (Tz), control growth (C), and test growth in the presence of compound (Ti) Percentage growth inhibition/Percentage viability are plotted versus compound concentration to determine Emax.
(§5) Growth inhibition of 50% (GI50) was calculated from [(Ti−Tz)/(C−Tz)]×100=50, which is the drug concentration resulting in a 50% reduction in the net increase of ATP in control growth (C) during the compound treatment.
(§6) The counter-screening of compounds in this viability assay with a “resistant” WiDr-R cell line may indicate whether these compounds have off-target effect(s).
A general note: Cellular ATP, detected with luciferase, serves as a proxy for viable cell number.

Series [3] concerns splicing of Ad2 pre-mRNA in HeLa nuclear extract. Put plainly: In vitro splicing (IVS) biochemical assay. Particulars: 30° C. The protocol:
Biotin-labeled pre-mRNA of an adenovirus type 2 construct with a deletion of intervening sequence (Ad2) (Berg, M. G., et al. 2012 Mol. Cell Bio., 32(7):1271-83) was prepared by in vitro transcription. The Ad2 construct containing Exon 1 (41 nucleotides), Intron (231 nucleotides), and Exon 2 (72 nucleotides) was generated by gene synthesis and cloned into the EcoRI and XbaI sites of pGEM®-3Z vector (Promega) by Genewiz® (South Plainfield, N.J.). The plasmid was then linearized by XbaI digestion and purified. In vitro transcription and purification of transcribed pre-mRNA were performed using the MEGAscript® T7 transcription kit (Invitrogen™, Life Technologies™, Grand Island, N.Y.) and MEGAclear™ transcription clean-up kit (Invitrogen™, Life Technologies™, Grand Island, N.Y.), respectively, following the manufacturer's instructions. The ratio of biotin-16-UTP (Roche Diagnostics Corporation, Indianapolis, Ind.) to cold UTP was 1:13 to incorporate approximately two biotin molecules per spliced Ad2 mRNA.
In vitro splicing assay was performed at 30° C. in 25 μL reaction mixtures containing 95 μg HeLa nuclear extract (Promega Corporation, Madison, Wis.), 47 nM Ad2 pre-mRNA, 25 U RNasin RNase inhibitor (Promega Corporation, Madison, Wis.), 1×SP buffer (0.5 mM ATP, 20 mM creatine phosphate, 1.6 mM MgCl2), and compounds in DMSO (with 1% final concentration of DMSO). After […] of incubation, the reaction was stopped by addition of 18 μL of 5M NaCl, and the mixtures were incubated with 10 μL of M-280 streptavidin-coated magnetic beads (Invitrogen™, Life Technologies™, Grand Island, N.Y.) for 30 min at room temperature to capture Ad2 pre- and spliced mRNA. The beads were washed twice with 100 uL buffer containing 10 mM Tris pH=7.5, 1 mM EDTA and 2M NaCl, and then incubated in RNA gel loading buffer containing 95% formamide at 70° C. for 10 min to elute the RNAs. Ad2 RNAs were resolved by 6% TBE-UREA gel, transferred to a nylon membrane, UV cross-linked, and probed with an IRDye® labeled streptavidin (LI-COR, Lincoln, Nebr.). The amount of spliced RNA was quantified by measuring the band fluorescent intensity using LI-COR Image Studio software.
The in vitro splicing (IVS) assay described above is a biochemical assay that monitors inhibition of the splicing of an exemplary pre-mRNA into an mRNA.

The subject of series [4] is Panc 05.04 cells (mt SF3B1; Q699H and K700E mutations in SF3B1). Put plainly: Cell viability assay (CellTiter-Glo, 72 hr), Panc 05.04. Format: cell-based. The conditions noted are these: for GI50 / Emax: Panc 05.04, 72 hr; for Emax: negative value indicates cellular lethality. The protocol:
as §1, §2, §3, §4, §5
Emax refers to the maximum achievable response to a compound in a tested dose range, with a negative value indicating cellular lethality. A larger negative Emax value indicates greater cellular lethality for a particular compound.

Series [5] has as its system WiDr-R cells (colon cancer cells, SF3B1 R1074H mutation). Description: Cell viability assay (CellTiter-Glo, 72 hr), WiDr-R counter-screen. Type of series: cell-based. The protocol: as §1, §2, §3, §4, §5, §6

4 compounds from patent publication US9481669B2, “Pladienolide pyridine compounds and methods of use” (Eisai R&D Management Co., Ltd., priority 2014, dated 2016) can be followed below.

By GI50 is commonly meant the concentration at which growth is held to half of that of the control. Read a low GI50 as greater sensitivity of the cells. A word on the IC50: it is the concentration needed to halve the response being measured. A low value points to greater potency. With `C/C(=C\C=C\[C@@H](C)c1ccccn1)[C@H]1OC(=O)C[C@H](O)CC[C@@](C)(O)[C@@H](OC(=O)N2CCN(C3CCCCCC3)CC2)/C=C/[C@@H]1C` [Compound 1, (2S,3S,6S,7R,10R,E)-7,10-dihydroxy-3,7-dimethyl-12-oxo-2-((R,2E,4E)-6-(pyridin-2-yl)hepta-2,4-dien-2-yl)oxacyclododec-4-en-6-yl 4-cycloheptylpiperazine-1-carboxylate], the “% parent remaining (pH = 1, 24 hours)” value in series [1] worked out at 91%. Moreover, the GI50 in series [2] is 15.8 nM; in series [4], 19.5 nM; in series [5], above 1000 nM. In series [3], this compound showed an IC50 of 188 nM. For the same compound, the Emax in series [4] was -86.8%. The “cellular lethality (Emax comparison)” value in series [4] (Panc 05.04 cells) is “greater cellular lethality than Compound 2”.
For `C/C(=C\C=C\[C@@H](C)c1ccccn1)[C@H]1OC(=O)C[C@H](O)CC[C@@](C)(O)[C@@H](OC(=O)N2CCN(C)CC2)/C=C/[C@@H]1C` [Compound 2, (2S,3 S,6S,7R,10R,E)-7,10-dihydroxy-3,7-dimethyl-12-oxo-2-((R,2E,4E)-6-(pyridin-2-yl)hepta-2,4-dien-2-yl)oxacyclododec-4-en-6-yl 4-methylpiperazine-1-carboxylate], in series [1], the “% parent remaining (pH = 1, 24 hours)” value was 96%. Besides, the values for the GI50 in series [2], in series [4] and in series [5] were 31.8 nM, 32.7 nM and above 1000 nM, respectively. Moreover, the IC50 in series [3] worked out at 1330 nM. Also, in series [4], the Emax is -66.1%.
In the case of `C/C(=C\C=C\[C@@H](C)c1ccccn1)[C@H]1OC(=O)C[C@H](O)CC[C@@](C)(O)[C@@H](OC(=O)N2CCC(N3CCCCCC3)CC2)/C=C/[C@@H]1C` [Compound 3, (2S,3S,6S,7R,10R,E)-7,10-dihydroxy-3,7-dimethyl-12-oxo-2-((R,2E,4E)-6-(pyridin-2-yl)hepta-2,4-dien-2-yl)oxacyclododec-4-en-6-yl 4-(azepan-1-yl)piperidine-1-carboxylate], the “% parent remaining (pH = 1, 24 hours)” value in series [1] is given as 98%. Moreover, the GI50 in series [2] is 26.3 nM; in series [4], 20.8 nM; in series [5], above 1000 nM. Also, in series [3], half-maximal inhibition (IC50) was put at 770 nM. In series [4], the Emax was -90.8%.
In the case of `C/C(=C\C=C\[C@@H](C)c1ccccn1)[C@H]1OC(=O)C[C@H](O)CC[C@@](C)(O)[C@@H](OC(=O)N2CCC(N3CCCCC3)CC2)/C=C/[C@@H]1C` [Compound 4, (2S,3 S,6S,7R,10R,E)-7,10-dihydroxy-3,7-dimethyl-12-oxo-2-((R,2E,4E)-6-(pyridin-2-yl)hepta-2,4-dien-2-yl)oxacyclododec-4-en-6-yl[1,4′-bipiperidine]-1′-carboxylate], the “% parent remaining (pH = 1, 24 hours)” value in series [1] was 99%. For the same compound, the results for the GI50 in series [2], in series [4] and in series [5] were 13 nM, 11.8 nM and above 1000 nM, respectively. The same compound came in with an IC50 in series [3] of 89 nM. The Emax in series [4] is -86.2%.
